Experimental data: US20180237362A1, “NOVEL POLYGODIAL ANALOGS FOR THE TREATMENT OF CANCER AND OTHER PROLIFERATIVE DISEASES” (THE BOARD OF REGENTS OF THE UNIVERSITY OF TAXAS SYSTEM, priority 2015, published 2018)

Assays:
[1] = system: uterine sarcoma MES-SA cells; assay: MTT antiproliferative assay, MES-SA; type: cell-based, human; conditions: 48 h treatment, relative to DMSO control, read-out: GI50 in vitro values, MES-SA
Procedure: (§1) Human mammary carcinoma MCF-7 (ATCC HTB22) cells were cultured in RPMI supplemented with 10% FBS. The U87 cells (ATCC HTB-14) were cultured in DMEM culture medium, while the A549 cells (DSMZ ACC107) were cultured in RPMI culture medium supplemented with 10% heat-inactivated FBS. The GBM Hs683 (ATCC HTB-138) cells were cultivated in DMEM supplemented with 10% FBS. The human uterine sarcoma MES-SA (ATCC CRL1966) and MES-SA/D×5 cells were cultured in RPMI-1640 medium supplemented with 10% FBS with MES SA/D×5 maintained in the presence of 500 nM Doxorubicin (Sigma). SKMEL-28 cells (ATCC HTB72) and U373 GBM cells (ECACC 08061901) were cultured in RPMI culture medium supplemented with 10% heat-inactivated FBS. Cell culture media were supplemented with 4 mM glutamine (Lonza code BE17-605E), 100 μg/mL gentamicin (Lonza code 17-5182), and penicillin-streptomycin (200 units/ml and 200 μg/ml) (Lonza code 17-602E). The MDA-MB-231 (ATCC HTB-26) epithelial mammary adenocarcinoma cells were cultured in Eagle's minimum essential medium (EMEM; Invitrogen) containing 5% fetal calf serum (FCS, Cambrex), 2 mM L-glutamine (Invitrogen), 0.06% HEPES (Invitrogen) and penicillin (50 IU/ml)/streptomycin (50 µg/ml; Invitrogen) at 37° C. in a humidified atmosphere of 5% CO2 in air. Transformed mouse NPCs were cultured in suspension under neurosphere conditions at 37° C. in a humidified atmosphere of […] and 5% CO2 in DMEM F12 (Invitrogen 11320-074) supplemented with 1×B27 supplement (Invitrogen 17504-044), 5% penicillin-streptomycin (Biochrom 10378-017), 10 ng/ml EGF (R&D systems 236-EG), 10 ng/ml FGF (PeproTech 100-18B).
(§2) Antiproliferative properties of the synthesized compounds were evaluated by the MTT assay. All compounds were dissolved in DMSO at a concentration of either 100 μM or 50 μM prior to cell treatment. The cells were trypsinized and seeded at various cell concentrations depending on the cell type. […]

HeLa cells = assay: Morphological changes, HeLa; type: cell-based, human; conditions: P3 50 μM, 1 hour
Procedure: (§3) FIGS. 12A-B Morphological changes (20×) in HeLa cells (FIG. 12Aa-d) and HSC3 cells (FIG. 12Ba-d) with no treatment (a) or treated with Polygodial 80 μM (b), P10 4 μM (c), and P3 50 μM (d) for 1 hour. Differences in morphological changes between treatments indicate potentially unique mechanisms-of-action between polygodial and P10 (isomer), and P3 (novel analog).

HSC3 cells = assay: Morphological changes, HSC3; type: cell-based, human; conditions: P3 50 μM, 1 hour
Procedure: as §3

[2] = system: U87 glioblastoma cell cultures; assay: MTT growth curves, U87; type: cell-based, human; conditions: apoptosis-resistant U87 GBM; concentrations up to 100 μM
Procedure: as §1, §2

[3] = system: MDR uterine sarcoma cell line MES-SA/Dx5; assay: MTT antiproliferative assay, MDR MES-SA/Dx5; type: cell-based, human
Procedure: as §1
Antiproliferative properties of the synthesized compounds were evaluated by the MTT assay. All compounds were dissolved in DMSO at a concentration of either 100 μM or 50 μM prior to cell treatment. The cells were trypsinized and seeded at various cell concentrations depending on the cell type. The cells were grown for 24 h to 72 h, treated with compounds at concentrations ranging from 0.001 to 100 μM and incubated for 48 or 72 h in 100 or 200 μL media depending on the cell line used. The number of experiments and replicates varied depending on the cell line. Cells treated with 0.1% DMSO were used as a negative control; 1 μM PAO was used as a positive control.
Selection of the MES-SA/D×5 cell line was done according to Harker et al. (Harker & Sikic, 1985). The cells were split and allowed to adhere overnight. The next day cells were initially exposed to doxorubicin (DOX) at the concentration of 100 nM, which represented the GI50 concentration. The cells were maintained at this DOX concentration until their growth rate reached that of the untreated cells. The DOX concentration was then increased in two-fold increments following the same growth criteria at each concentration to a final DOX concentration of 500 nM. Each new DOX concentration required approximately 2 passages to reach the growth rate of the untreated cells.
Often, tumors initially respond to chemotherapy but eventually become refractory to the continuing treatment. Such acquired resistance commonly occurs through the development of a multi-drug resistant phenotype (MDR) (Gottesman et al., 2002 and Saraswathy & Gong, 2013) affecting many common chemotherapeutic agents, including the vinca alkaloids (Chen et al., 2000) and taxanes (Geney et al., 2002). In addition, the development of apoptosis resistance and MDR mechanisms is often related and concurrent (Ruefli et al., 2002 and Johnstone et al., 1999), and thus it was of interest to evaluate 5 against MDR cells. Towards this end, the MDR uterine sarcoma cell line MES-SA/D×5, established by growing the parent uterine sarcoma MES-SA in the presence of increasing concentrations of doxorubicin and resistant to multiple functionally and structurally unrelated molecules (Harker & Sikic, 1985), was utilized.

Cal27-derived tumors = assay: Mouse xenograft model, Cal27; type: in vivo, athymic nude mice
Procedure: Six-week old female athymic nude mice were used in laminar air-flow cabinet in pathogen-free conditions. They were acclimated for one week prior to the start of the study and kept at controlled temperature and humidity, with food and water. Mice were injected subcutaneously in the flank with 2×10^6 Cal27 cells or HeLa cells in 0.1 mL of sterile PBS. When the tumors reached 100 mm^3 (Cal27) and 150 mm^3 (HeLa), the mice were stratified into 4 groups, […], polygodial, P10, P3 and P27 at the concentrations noted in the figure legends.

U373 cells = assay: Trypan blue viability assay, U373; type: cell-based, human; conditions: 72 h treatment
Procedure: FIG. 9. Viability of U373 cells by trypan blue staining. U373 cells were treated for 72 h with 1 or 13 and stained with trypan blue. The experiment was conducted once in triplicate. After having taken pictures, cells were fixed with ice-cold methanol and again stained with trypan blue as internal positive control.
To confirm the results obtained in the videomicroscopy experiments, trypan blue assay was employed to detect necrotic and late apoptotic cells that had lost their plasma membrane integrity (FIG. 9). […] These observations support the results of the MTT assay and provide an explanation for the effectiveness of the C12-Wittig derivatives against cells, which display resistance to apoptosis induction. In contrast, at the concentrations necessary to induce cancer cell death 1 behaves as a toxic fixative compound of little promise as a potential drug.

SMILES	GI50 [1]	morphological changes, HeLa (HeLa cells)	morphological changes, HSC3 (HSC3 cells)	effect on proliferation/viability of all cells, U87 [2]	change of potency against MES-SA/Dx5 MDR cell line as compared with parent MES-SA cells ([3]; 48 h MTT)	GI50 ([3]; 48 h treatment, MTT assay, relative to DMSO control, read-out: GI50 in vitro values, MES-SA/Dx5)	anti-tumor effect, Cal27-derived tumors (Cal27-derived tumors; 40 μg/100 μl intra-tumor injection every other day for 18 days, no significant difference between polygodial and P27)	inflammatory response, Cal27 xenograft mice (Cal27-derived tumors; days 2-4, intra-tumor injection)	viability by trypan blue staining (U373 cells)
COC(=O)/C=C/C1=CC[C@H]2C(C)(C)CCC[C@]2(C)[C@H]1C=O [Compound 5]	40 µM	apoptotic figures	apoptotic figures	growth inhibitory properties against most of the cells	little variation in the sensitivities of the two cell lines	45 µM			
CC1(C)CCC[C@]2(C)[C@@H](C=O)C(C=O)=CC[C@@H]12 [Compound 1, Polygodial]							significant anti-tumor effects	notable inflammatory response	all blue-stained before methanol fixation
